Where two headings read alike, the source gives them in different places.
Legend:
HepG2 cells = experiment: cells; assay type: cell-based, human; settings: for IC50: MTT, 24 h incubation, HepG2 cells, read-out: HepG2 IC50; for HepG2 TI (IC50 WI-38 / IC50 HepG2): therapeutic index, ratio of WI-38 IC50 to HepG2 IC50
Procedure: Cells were obtained from the ATCC Company (VACSERA), Cairo, Egypt. MTT assay were performed according to the literature method. More details are in the Supporting Information.
Recently, OSe compounds gained much attention as possible drug candidates due to their various pharmacological properties. Our group has reported several OSe candidates with potential anticancer, antimicrobial, and antioxidant activities. Therefore, the anticancer attributes of the newly prepared OSe compounds were estimated using the MTT assay against MCF-7 and HepG2 and compared with their respective cytotoxicity in WI-38 primary cells. The anthracycline drug doxorubicin was used as the standard. The minimal inhibition concentration required to kill 50% of the cells (IC50) was calculated from dose-response curves presented in Table 1. Moreover, the therapeutic index (TI) was also calculated (according to Equation (1)), which is considered a measure of the selectivity and safety of the synthesized compounds. (1) TI=IC50 for the normal WI38 cells/IC50 for the cancer cells […]
1.1. The biological assays
1.1.1. The anticancer activity
The breast adenocarcinoma (MCF-7), Hepatocellular carcinoma (HEPG-2), and nor-mal fibroblast (WI-38) cells were obtained from ATCC via Holding company for biological products and vaccines (VACSERA), Cairo, Egypt. The reagents RPMI-1640 medium, MTT, DMSO, and fetal bovine serum was obtained from Sigma Aldrich. Dulbecco’s modified Eagle’s medium was used as the culture medium for the cells, and the cytotoxicity was evaluated using the reported MTT assay. Doxorubicin was used as the positive reference, and the IC50 values were obtained from the corresponding dose-response curve.
This colorimetric assay is based on converting the yellow tetrazolium bromide (MTT) to a purple formazan derivative by mitochondrial succinate dehydrogenase in viable cells.
Cell lines were cultured in RPMI-1640 medium with 10% fetal bovine serum. Antibiotics added were 100 units/ml penicillin and 100µg/ml streptomycin at 37 C in a 5% Co2 incu-bator. The cell lines were seeded in a 96-well plate at a density of 1.0x10^4 cells/well. at 37 C for 48 h under 5% Co2. After incubation, the cells were treated with different concentra-tions of compounds and incubated for 24 h. After 24 h of drug treatment, 20 µl of MTT solution at 5mg/ml was added and incubated for 4 h. Finally, dimethyl sulfoxide (DMSO) in the volume of 100 µl is added to each well to dissolve the purple formazan formed. The colorimetric assay is measured and recorded at an absorbance of 570 nm using a plate reader (EXL 800, USA). The percentage of the relative cell viability was calculated as (A570 of treated samples/A570 of the untreated sample) X 100. […]
(§1) Inhibition%= (Ablank-Asample)/(Ablank)*100. (1)

Candida albicans = experiment: microbe, parasite or virus in culture; assay type: cell-based; parameters: C. albicans A% (activity index): concentration or dose not given beside the values; settings: for C. albicans A% (activity index): zone of test compound / zone of standard (clotrimazole) x 100; for zone of inhibition at 20 µM: Candida albicans, read-out: C. albicans IZD (mm)
Procedure: The antimicrobial activities of the OSe compounds were evaluated against C. albicans yeast, as well as E. coli and S. bacteria, employing the agar well diffusion assay. Furthermore, the MICs (in µM) were determined by the microdilution method according to the reported protocol. More details are in the Supporting Information.
Compounds were evaluated for their antimicrobial activity against the Gram-negative bacteria Escherichia coli (E. coli) and the Gram-positive bacteria Staphylococcus aureus (S. aureus), as well as the Candida albicans (C. albicans) fungal strain, using the agar diffusion assay. Ampicillin and clotrimazole were used as standards. Indeed, the antimicrobial properties of the OSe compounds were also obtained from the activity index percentage (A%) according to Equation (2). (2) A%=Zone of inhibition by test compound diametre/Zone of inhibition by standard diametre×100 . […]
1.1.1. The antimicrobial activity
The antimicrobial activities of the OSe compounds were evaluated against C. albicans yeast as well as E. coli gram-negative and S. aureus gram-positive bacteria employing the agar well diffusion assay. […]
compound by dissolving in DMSO. […]
Petri dishes, which in turn contain a nutrient media (agar 20 g, peptone 5 g, and beef extract 3 g) seeded with the dedicated strain. Incubation lasted for 24 h at 36
Furthermore, the MICs (in µM) were determined by the microdilution method according to the reported protocol. […]
as §1

[1] = ABTS radical scavenging bioassay; assay type: biochemical; settings: for radical scavenging activity, ABTS assay: compound 1 mM in phosphate-buffered methanol, 734 nm; for IC50: concentration decreasing absorbance by 50%
Excerpt: The antioxidant activity was estimated by ABTS and DPPH bioassays, according to the reported literature method. More details are in the Supplementary Materials.
Recently, OSe compounds were thoroughly used as redox modulators to control many complicated diseases (e.g., cancer and neurodegenerative diseases). The DPPH and ABTS bioassays were extensively used as rapid tools for estimating the antioxidant potency of OSe compounds [50, 51]. Ascorbic acid was used as a standard control, and the antioxidant potency was measured by the ability of the compounds to decolorize the characteristic colors of the ABTS^. and DPPH^. radicals by following the colorimetric decline in absorbance at 734 and 517 nm, respectively (Figure 2).
Figure 2 Evaluation of the antioxidant properties of the OSe compounds employing the ABTS and DPPH assays. All measurements are mean ± SD. In the DPPH assay: absorbance was read after 0.5 h of mixing […] of DPPH with […] of OSe compounds (1 mM, MeOH) at 517 nm. In the ABTS assay: […] of each OSe compound (1 mM, phosphate-buffered methanol) was mixed with the ABTS solution (60 mM), and absorbance was monitored at 734 nm.
The antioxidant activity of the investigated compounds was assessed using 2,2’-az-ino-bis(3-ethylbenzothiazoline-6-sulphonic acid (ABTS) method. The radical cation derived from ABTS was prepared by the reaction of 60 mM ABTS solution with 0.3 M manganese dioxide solution in 0.1M phosphate buffer, pH 7. Then, the mixture was shaken, centrifuged, filtered, and the absorbance (Acontrol) of the resulting green-blue solu-tion (ABTS radical solution) was measured at wavelength 734 nm. Then, […] of 1 mg/ml test compound in phosphate-buffered methanol was added. The absorbance (Atest) was measured. The reduction in color intensity was expressed as % inhibition. The % inhibi-tion for each compound is calculated from the following equation
Inhibition% = (Acontrol-Asample)/(Acontrol)*100
Ascorbic acid (vitamin C) was used as a standard antioxidant (positive control). A blank sample was run without ABTS and using MeOH/phosphate buffer (1:1) instead of the sample. A negative control sample was run with MeOH/phosphate buffer (1:1) instead

[2] = inhibition zone diameter, six-mm disks soaked with 20 μM of compound

Compound	IC50 (HepG2 cells) [µM]	HepG2 TI (IC50 WI-38 / IC50 HepG2) (HepG2 cells)	C. albicans IZD (mm) (Candida albicans; [2])	C. albicans A% (activity index) (Candida albicans) [%]	radical scavenging activity, ABTS assay [1] [%]	IC50 [1] [µM]	IC50 (HepG2 cells; Homo sapiens) [µM]	zone of inhibition at 20 µM (Candida albicans; [2]) [mm]	melting point [°C]
2-((4-(2-(3-hydroxynaphthalen-1(4H)-ylidene)hydrazinyl)phenyl)selanyl)-N-phenylacetamide [Compound 9]	7.48 ± 0.6	5.3	21	88	88	28.87 ± 0.2			
Nc1ccc([Se]CC(=O)Nc2ccccc2)cc1 [Compound 4, 2-((4-aminophenyl)selanyl)-N-phenylacetamide]		2.9		54	78		18.3 ± 1.3	13	121 to 122
CCOc1ccc(NC(=O)C[Se]c2ccc(N)cc2)cc1 [Compound 5, 2-((4-aminophenyl)selanyl)-N-(4-ethoxyphenyl)acetamide]				33	53		> 100	8	136 to 137
Nc1ccc([Se]CC(=O)N[C@@H](Cc2c[nH]c3ccccc23)C(=O)O)cc1 [Compound 6, (2-((4-aminophenyl)selanyl)acetyl)tryptophan]		3.2		83	85	31.92 ± 0.29	8.86 ± 0.7	20	154 to 156
O=C(O)CCC(=O)Nc1ccc([Se]CC(=O)Nc2ccccc2)cc1 [Compound 11, 4-oxo-4-((4-((2-oxo-2-(phenylamino)ethyl)selanyl)phenyl)amino)butanoic acid]		2.5		54	74		26.7 ± 1.9	13	163 to 165
O=C(C[Se]c1ccc(N2C(=O)CCC2=O)cc1)Nc1ccccc1 [Compound 14, 2-((4-(2,5-dioxopyrrolidin-1-yl)phenyl)selanyl)-N-phenylacetamide]		5		63	81		12.6 ± 1	15	159 to 161
C[Se]c1ccc(NC(=O)C=CC(=O)O)cc1 [Compound 15, 4-((4-(methylselanyl)phenyl)amino)-4-oxobut-2-enoic acid]		2		67	84		9.94 ± 0.8	16	171
C[Se]c1ccc(NC(=O)CCC(=O)O)cc1 [Compound 16, 4-((4-(methylselanyl)phenyl)amino)-4-oxobutanoic acid]		0.7		50	71		32.6 ± 2.3	12	169.6

From article PMC9312238, “Novel Organoselenium Redox Modulators with Potential Anticancer, Antimicrobial, and Antioxidant Activities” (Antioxidants, 2022)
